Results: the supplement of paper PMC4932681
Where a name gives a salt, the structure may show the parent alone.

Legend:
Test in all cases: viability inhibition at highest dose (% inhibition); higher = more growth inhibition
[1] = tested on: ZR-75-1; settings: 72 h
Summary of the method: (§1)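 After seeding into 384-well plates with library drugs at five concentrations spanning a 10 000-fold range, breast cancer cell lines and their resistant derivatives were incubated 72 h at 37 °C. Resistant lines received medium with 1 μM of the selecting drug. CellTiter-Glo signal was read on a PHERAstar and scaled to vehicle-only and positive controls. Drug sensitivity score, relative IC50 (the curve midpoint) and top-dose inhibition came from logistic fits run in the Breeze pipeline.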

[2] = tested on: MCF-7 Tam1; settings: 4-OH-tamoxifen in medium 1 µM; 72 h
Summary of the method: as §1

[3] = tested on: T-47D; settings: 72 h
Summary of the method: as §1

[4] = tested on: T-47D Tam2; settings: 4-OH-tamoxifen in medium 1 µM; 72 h
Summary of the method: as §1

[5] = tested on: MCF-7; settings: 72 h
Summary of the method: as §1

[6] = tested on: BT-474 Tam2; settings: 4-OH-tamoxifen in medium 1 µM; 72 h
Summary of the method: as §1

[7] = tested on: T-47D Tam1; settings: 4-OH-tamoxifen in medium 1 µM; 72 h
Summary of the method: as §1

[8] = tested on: BT-474; settings: 72 h
Summary of the method: as §1

[9] = tested on: ZR-75-1 Tam1; settings: 4-OH-tamoxifen in medium 1 µM; 72 h
Summary of the method: as §1

[10] = tested on: ZR-75-1 Tam2; settings: 4-OH-tamoxifen in medium 1 µM; 72 h
Summary of the method: as §1

[11] = tested on: BT-474 Tam1; settings: 4-OH-tamoxifen in medium 1 µM; 72 h
Summary of the method: as §1

Structure (SMILES) | viability inhibition at highest dose ([1]; 4-OH-tamoxifen in medium 0 µM) | viability inhibition at highest dose ([1]; 4-OH-tamoxifen in medium 1 µM) | viability inhibition at highest dose [2] | viability inhibition at highest dose ([3]; 4-OH-tamoxifen in medium 0 µM) | viability inhibition at highest dose ([3]; 4-OH-tamoxifen in medium 1 µM) | viability inhibition at highest dose [4] | viability inhibition at highest dose ([5]; 4-OH-tamoxifen in medium 0 µM) | viability inhibition at highest dose ([5]; 4-OH-tamoxifen in medium 1 µM) | viability inhibition at highest dose [6] | viability inhibition at highest dose [7] | viability inhibition at highest dose ([8]; 4-OH-tamoxifen in medium 0 µM) | viability inhibition at highest dose ([8]; 4-OH-tamoxifen in medium 1 µM) | viability inhibition at highest dose [9] | viability inhibition at highest dose [10] | viability inhibition at highest dose [11]
OC[C@H]1O[C@@H](n2cnc3c2N=CNC[C@H]3O)C[C@@H]1O [Pentostatin] (drug 10000 nM) | 48.5 | 41.3 | 19.7 | 45.1 | 28.1 | 35.5 | 47.4 | 30.7 | 16 | 48 | 15.9 | 13.3 | 46.9 | 40.8 | 30.3
CC[C@@]1(O)C(=O)OCc2c1cc1n(c2=O)Cc2cc3ccccc3nc2-1 [Camptothecin] (drug 5000 nM) | 52.9 | 41.1 | 49.1 | 61 | 28.7 | 35.6 | 85.5 | 87.2 | -15.3 | 49.6 | -9.54 | 0.861 | 54.1 | 57.9 | 4.82
CC/C(=C(\c1ccccc1)c1ccc(OCCN(C)C)cc1)c1ccccc1 [Tamoxifen citrate] (drug 10000 nM) | 9.17 | 38.8 | 28.6 | 4.58 | 10.2 | 50 | 10.6 | 78.6 | 93.8 | 15.1 | 35.7 | 91.4 | 17.8 | 26.3 | 95.3
COc1ncc(-c2ccc3nccc(-c4ccnnc4)c3c2)cc1NS(=O)(=O)c1ccc(F)cc1F (drug 1000 nM) | 76.9 | 72.3 | 60.1 | 71.6 | 77.9 | 78 | 68.6 | 85 | 98 | 69.3 | 90 | 97.1 | 83 | 86.4 | 98.5
CN(C)/N=N/c1[nH]cnc1C(N)=O [Dacarbazine] (drug 10000 nM) | -2.8 | -13 | -11.3 | -8.78 | -10 | -1.82 | -17 | 10.7 | 6.76 | -0.257 | -13 | -17.3 | 0.27 | 6.57 | -7.07
